Our source for the IC50 values is patent US20130261130A1, “NEUROTRYPSIN INHIBITORS” (priority 2010, published 2013).

As a reminder, the IC50 is the concentration that gives 50% inhibition.

The target in the experiment is T1, human neurotrypsin (Homo sapiens, UniProt P56730).
T1 sequence (P56730 21-875): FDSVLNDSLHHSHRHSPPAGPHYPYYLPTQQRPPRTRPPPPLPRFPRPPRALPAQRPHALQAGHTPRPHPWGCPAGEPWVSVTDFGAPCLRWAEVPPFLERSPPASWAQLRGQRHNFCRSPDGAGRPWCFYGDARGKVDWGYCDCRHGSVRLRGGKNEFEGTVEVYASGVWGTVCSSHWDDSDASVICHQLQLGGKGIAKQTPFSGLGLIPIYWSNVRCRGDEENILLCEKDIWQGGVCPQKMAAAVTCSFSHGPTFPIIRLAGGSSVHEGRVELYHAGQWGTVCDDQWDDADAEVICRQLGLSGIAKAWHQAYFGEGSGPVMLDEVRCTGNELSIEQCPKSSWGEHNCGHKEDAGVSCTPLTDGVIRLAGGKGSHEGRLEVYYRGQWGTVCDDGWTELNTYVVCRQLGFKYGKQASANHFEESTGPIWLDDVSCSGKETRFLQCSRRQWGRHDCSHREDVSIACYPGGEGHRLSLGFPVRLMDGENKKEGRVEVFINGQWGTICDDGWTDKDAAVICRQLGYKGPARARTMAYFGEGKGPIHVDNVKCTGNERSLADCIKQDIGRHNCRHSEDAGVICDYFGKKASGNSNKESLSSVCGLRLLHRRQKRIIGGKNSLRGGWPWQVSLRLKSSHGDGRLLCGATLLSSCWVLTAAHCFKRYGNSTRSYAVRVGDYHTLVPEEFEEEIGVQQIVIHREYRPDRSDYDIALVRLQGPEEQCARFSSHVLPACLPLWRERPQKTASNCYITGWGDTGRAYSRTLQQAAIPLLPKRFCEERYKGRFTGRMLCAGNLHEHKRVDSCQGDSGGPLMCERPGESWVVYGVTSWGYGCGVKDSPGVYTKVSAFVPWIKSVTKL
In words: Determination of IC50 for human neurotrypsin. Format: biochemical. The settings on record: human neurotrypsin; method of WO 2006/1103261; read-out: Neurotrypsin IC50. Here is the method: Assessment of the potency of compounds of examples 1-311 in inhibiting the enzymatic activity of human neurotrypsin was performed according to the method described in patent application WO 2006/1103261

For `O=C(Nc1ccc(Cl)cc1)c1ccc(C(=O)O)c(NC(=O)c2ccc(-c3nc4cc(Cl)c(Cl)cc4[nH]3)cc2)c1` [Example 40, 4-(4-Chlorophenyl-carbamoyl)-2-(4-(5,6-di-chloro-1H-benzo[d]imidazol-2-yl)benzamido)benzoic acid], the IC50 was 0.8 µM.
The figure for `O=C(Nc1ccc(Cl)cc1)c1ccc(C(=O)O)c(NC(=O)c2sc3ccccc3c2Cl)c1` [Example 1, 2-(3-Chlorobenzo[b]thiophene-2-carboxamido)-4-(4-chlorophenylcarbamoyl)-benzoic acid] is 8.5 µM.
For “2-(6-Chlorobenzo[b]-thiophene-2-carboxamido)-5-((5-chlorothiophen-2-yl-methyl)carbamoyl)benzoic acid [Example 107]”, the 50% inhibitory concentration (IC50) was found to be 4.8 µM.
Consider `O=C(Nc1ccc(C(=O)N2CCC(c3ccccc3)CC2)cc1C(=O)O)c1cc2ccc(Cl)cc2s1` [Example 163, 2-(6-Chlorobenzo[b]-thiophene-2-carboxamido)-5-(4-phenylpiperidine-1-carbonyl)benzoic acid], for which the IC50 was 2.6 µM.
Consider `O=C(Nc1ccc(Cc2ccccc2)cc1)c1ccc(C(=O)O)c(NC(=O)c2sc3ccccc3c2Cl)c1` [Example 67], for which the IC50 is 10.7 µM.
With `O=C(O)c1ccc(NS(=O)(=O)c2ccc(Cl)cc2)cc1NC(=O)c1sc2ccccc2c1Cl` [Example 278], the 50% inhibitory concentration (IC50) worked out at 19.4 µM.
Consider `COC(=O)c1cc(OCC(=O)O)c(C(=O)Nc2ccc(Cl)cc2)cc1NC(=O)c1ccc(-c2nc3cc(Cl)c(Cl)cc3n2C)cc1` [Example 305], for which the IC50 was determined as 1.2 µM.
Consider `O=C(NCc1c(F)cccc1F)c1ccc(NC(=O)c2cc3ccc(Cl)cc3s2)c(C(=O)O)c1` [Example 165, 2-(6-Chlorobenzo[b]-thiophene-2-carboxamido)-5-(2,6-difluorobenzyl-carbamoyl)benzoic acid], for which the half-maximal inhibitory concentration (IC50) is 8.9 µM.
Under `O=C(O)COc1cc(C(=O)O)c(NC(=O)c2sc3ccccc3c2Cl)cc1C(=O)Nc1ccc(Cl)cc1` [Example 304] stands 2.5 µM.
Under `O=C(NC1CCCc2ccccc21)c1ccc(NC(=O)c2ccc(-c3ccc(Cl)cc3)s2)c(C(=O)O)c1` (stereo not drawn) [Example 112] stands 5 µM; under `O=C(O)CN(C(=O)c1ccc(C(=O)O)c(NC(=O)c2sc3ccccc3c2Cl)c1)c1ccc(Cl)cc1` [Example 74], 26.1 µM; under “3-Chloro-N-(5-(5-chloro-1,3-thiazol-2-ylcarbamoyl)-2-(2H-tetrazol-5-yl)phenyl)benzo[b]-thiophene-2-carboxamide [Example 227]”, 9.7 µM.
Regarding `O=C(NCc1ccccc1)c1ccc(NC(=O)c2ccc(-c3nc4cc(Cl)c(Cl)cc4[nH]3)cc2)c(C(=O)O)c1` [Example 132], the half-maximal inhibitory concentration (IC50) amounted to 5.3 µM.
Regarding `O=C(O)c1ccc(-c2cn(Cc3c(F)cccc3F)nn2)cc1NC(=O)c1sc2ccccc2c1Cl` [Example 260], the IC50 came out at 11 µM.
Under `O=C(Nc1ccc(C(=O)N2CCC(Oc3ccccc3)CC2)cc1C(=O)O)c1ccc(-c2ccc(Cl)cc2)s1` [Example 162, 2-(5-(4-Chlorophenyl)-thiophene-2-carboxamido)-5-(4-phenoxypiperidine-1-carbonyl)benzoic acid] stands 4.5 µM; under `O=C(O)c1ccc(Nc2ccc(Cl)cc2)cc1NC(=O)c1sc2ccccc2c1Cl` [Example 288, 2-(3-Chlorobenzo[b]thiophene-2-carboxamido)-4-(4-chlorophenyl-amino)benzoic acid], 5.1 µM; under `O=C(O)c1ccc(NCc2ccc(Cl)cc2)cc1NC(=O)c1sc2ccccc2c1Cl` [Example 280, 2-(3-Chlorobenzo[b]thiophene-2-carboxamido)-4-(4-chlorobenzylamino)-benzoic acid], 5 µM.
As for `O=C(N[C@@H]1C[C@H]2CC[C@@H]1C2)c1ccc(C(=O)O)c(NC(=O)c2sc3ccccc3c2Cl)c1` [Example 34, 4-((1R,2R,4S)-Bicyclo[2.2.1]-heptan-2-ylcarbamoyl)-2-(3-chlorobenzo[b]thiophene-2-carboxamido)benzoic acid], the IC50 stood at 14.1 µM.
Under `O=C(Nc1ccc(Oc2ccccc2)c(Cl)c1)c1ccc(C(=O)O)c(NC(=O)c2sc3ccccc3c2Cl)c1` [Example 73] stands 4.4 µM.
As to `O=C(Nc1ccc(Oc2cccnc2)c(Cl)c1)c1ccc(C(=O)O)c(NC(=O)c2sc3ccccc3c2Cl)c1` [Example 85], the half-maximal inhibitory concentration (IC50) came to 2.3 µM.
For the compound `N#Cc1ccc(-c2ccc(C(=O)O)c(NC(=O)c3ccc(-c4nc5cc(Cl)c(Cl)cc5[nH]4)cc3)c2)cc1` [Example 267], the half-maximal inhibitory concentration (IC50) was determined as 0.5 µM.
Regarding `CN(CC1CCCCC1)C(=O)c1ccc(NC(=O)c2ccc(-c3nc4cc(Cl)c(Cl)cc4[nH]3)cc2)c(C(=O)O)c1` [Example 49, 5-(N-Cyclohexylmethyl-N-methylcarbamoyl)-2-(4-(5,6-dichloro-1H-benzo[d]-imidazol-2-yl)benzamido)-benzoic acid], the 50% inhibitory concentration (IC50) came out at 6.6 µM.
`O=C(Nc1ccc(C(=O)N2CCC(Cc3ccc(Cl)cc3)CC2)cc1C(=O)O)c1cc2ccc(Cl)cc2s1` [Example 164, 2-(6-Chlorobenzo[b]-thiophene-2-carboxamido)-5-(4-(4-chlorobenzyl)piperidine-1-carbonyl)benzoic acid]: the half-inhibitory concentration (IC50) came to 3.5 µM.
For the compound `O=C(O)c1ccc(/C=C/Cc2ccccc2)cc1NC(=O)c1sc2ccccc2c1Cl` [Example 246], the IC50 is 98.4 µM.
For the compound `O=C(Nc1ccc(CCc2ccccc2)cc1)c1ccc(C(=O)O)c(NC(=O)c2sc3ccccc3c2Cl)c1` [Example 63, 2-(3-Chlorobenzo[b]-thiophene-2-carboxamido)-4-(4-phenethylphenyl-carbamoyl)benzoic acid], the IC50 was found to be 130 µM.
The figure for `O=C(O)c1ccc(NC2CCCc3ccccc32)cc1NC(=O)c1sc2ccccc2c1Cl` (stereo not drawn) [Example 291] is 4 µM; for `O=C(Nc1ccc(Cl)cc1)c1ccc(C(=O)O)c(NC(=O)c2sc3cc(Cl)ccc3c2Cl)c1` [Example 18, 4-(4-Chlorophenyl-carbamoyl)-2-(3,6-dichloro-benzo[b]thiophene-2-carboxamido)benzoic acid] it is 8.3 µM.
With `O=C(Nc1ccc(Cl)cc1F)c1ccc(NC(=O)c2ccc(-c3nc4cc(Cl)c(Cl)cc4[nH]3)cc2)c(C(=O)O)c1` [Example 51, 5-(4-Chloro-2-fluorophenyl-carbamoyl)-2-(4-(5,6-dichloro-1H-benzo[d]-imidazol-2-yl)benzamido)-benzoic acid], the half-maximal inhibitory concentration (IC50) came to 0.5 µM.
Under `O=C(Nc1nc2ccc(Cl)cc2s1)c1ccc(C(=O)O)c(NC(=O)c2sc3ccccc3c2Cl)c1` [Example 87, 2-(3-Chlorobenzo[b]-thiophene-2-carboxamido)-4-(6-chlorobenzo[d]thiazol-2-yl-carbamoyl)benzoic acid] stands 4.3 µM.
In the case of `O=C(Nc1ccc(Cl)cc1)c1ccc(NC(=O)c2ccc(-c3cccs3)cc2O)c(C(=O)O)c1` [Example 120, 5-(4-Chlorophenyl-carbamoyl)-2-(2-hydroxy-4-(thiophen-2-yl)benzamido)-benzoic acid], the 50% inhibitory concentration (IC50) came out at 4.1 µM.
The figure for “N-(5-(5-Chloro-1,3-thiazol-2-ylcarbamoyl)-2-(2H-tetrazol-5-yl)phenyl)-5-phenyl-thiophene-2-carboxamide [Example 228]” is 6.6 µM; for `O=C(Nc1ccc(C(=O)N2CCCCC2)cc1C(=O)O)c1ccc(-c2nc3cc(Cl)c(Cl)cc3[nH]2)cc1` [Example 124] it is 3.9 µM; for `O=C(O)c1ccc(C(=O)N2CCC(c3ccccc3)C2)cc1NC(=O)c1sc2ccccc2c1Cl` (stereo not drawn) [Example 103] it is 4.1 µM.
Under `O=C(O)c1ccc(C(=O)N2CCC(O)(c3ccc(Cl)c(C(F)(F)F)c3)CC2)cc1NC(=O)c1sc2ccccc2c1Cl` [Example 151, 4-(4-(4-Chloro-3-(trifluoro-methyl)phenyl)-4-hydroxy-piperidine-1-carbonyl)-2-(3-chlorobenzo[b]thiophene-2-carboxamido)benzoic acid] stands 2.7 µM; under `O=C(Nc1ncc(Cl)s1)c1ccc(C(=O)O)c(NC(=O)c2sc3ccccc3c2Cl)c1` [Example 59], 9 µM; under `O=C(O)c1ccc(-c2cn(Cc3ccc(Cl)s3)nn2)cc1NC(=O)c1sc2ccccc2c1Cl` [Example 262], 7 µM.
The figure for `O=C(Nc1ccc(Cl)cc1)c1ccc(C(=O)O)c(NC(=O)c2ccc(-c3ccccc3)s2)c1` [Example 9, 4-(4-Chlorophenyl-carbamoyl)-2-(5-phenyl-thiophene-2-carboxamido)-benzoic acid] is 25.7 µM.
Take `O=C(Nc1ccc(C(=O)O)c(NC(=O)c2sc3ccccc3c2Cl)c1)c1ccc(Cl)cc1` [Example 273]: the IC50 was determined as 7.6 µM.
The figure for `O=C(Nc1ccc(C(=O)N2CCC(Oc3ccccc3)CC2)cc1C(=O)O)c1cc2ccc(Cl)cc2s1` [Example 160, 2-(6-Chlorobenzo[b]thiophene-2-carboxamido)-5-(4-phenoxypiperidine-1-carbonyl)benzoic acid] is 3.9 µM.
